The target of experiment [1] is RAC-alpha serine/threonine-protein kinase (Homo sapiens) (UniProt P31749). Briefly: Inhibition of AKT1 (unknown origin) at 30 uM by microfluidic assay relative to control.
In experiment [2] the target is Protein kinase C (PKC) (Homo sapiens) (UniProt O94806+P41743+P17252+P05129+Q05655+P05771+Q05513+Q02156+P24723+Q15139+Q04759). Briefly: Inhibition of PKC (unknown origin) at 30 uM by microfluidic assay relative to control.
Experiment [3] addresses MAP kinase-activated protein kinase 2 (Homo sapiens) (UniProt P49137). Briefly: Inhibition of MK2 (unknown origin) at 30 uM by microfluidic assay relative to control.
The target of experiment [4] is T1, Serine/threonine-protein kinase D2 (Homo sapiens) (UniProt Q9BZL6).
T1 sequence (whole entry): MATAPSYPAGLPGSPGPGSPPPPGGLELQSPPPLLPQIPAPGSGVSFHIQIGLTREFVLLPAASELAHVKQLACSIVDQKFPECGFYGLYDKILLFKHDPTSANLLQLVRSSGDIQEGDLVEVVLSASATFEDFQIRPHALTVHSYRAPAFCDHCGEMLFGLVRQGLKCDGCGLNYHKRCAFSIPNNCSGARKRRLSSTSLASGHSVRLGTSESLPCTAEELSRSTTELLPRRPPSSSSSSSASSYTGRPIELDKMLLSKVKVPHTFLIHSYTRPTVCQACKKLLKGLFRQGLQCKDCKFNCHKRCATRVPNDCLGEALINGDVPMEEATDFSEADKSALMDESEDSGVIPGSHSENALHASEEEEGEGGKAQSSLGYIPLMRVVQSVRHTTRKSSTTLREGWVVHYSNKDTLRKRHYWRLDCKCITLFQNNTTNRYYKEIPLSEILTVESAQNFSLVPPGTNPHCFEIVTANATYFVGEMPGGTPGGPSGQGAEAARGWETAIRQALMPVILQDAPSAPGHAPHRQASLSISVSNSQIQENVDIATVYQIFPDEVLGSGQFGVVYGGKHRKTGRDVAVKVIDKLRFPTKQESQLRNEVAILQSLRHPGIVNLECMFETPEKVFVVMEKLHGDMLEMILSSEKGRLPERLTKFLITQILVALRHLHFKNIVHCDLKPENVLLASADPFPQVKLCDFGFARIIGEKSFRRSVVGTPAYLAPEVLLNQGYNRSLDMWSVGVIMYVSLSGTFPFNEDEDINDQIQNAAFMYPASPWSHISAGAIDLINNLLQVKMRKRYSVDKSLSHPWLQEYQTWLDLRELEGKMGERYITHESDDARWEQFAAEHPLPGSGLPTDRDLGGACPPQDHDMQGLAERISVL
Briefly: Inhibition of PKD2 (unknown origin) at 30 uM by microfluidic assay relative to control.

Experiment [5] deals with T2, Serine/threonine-protein kinase Chk1 (Homo sapiens) (UniProt O14757).
T2 sequence (whole entry): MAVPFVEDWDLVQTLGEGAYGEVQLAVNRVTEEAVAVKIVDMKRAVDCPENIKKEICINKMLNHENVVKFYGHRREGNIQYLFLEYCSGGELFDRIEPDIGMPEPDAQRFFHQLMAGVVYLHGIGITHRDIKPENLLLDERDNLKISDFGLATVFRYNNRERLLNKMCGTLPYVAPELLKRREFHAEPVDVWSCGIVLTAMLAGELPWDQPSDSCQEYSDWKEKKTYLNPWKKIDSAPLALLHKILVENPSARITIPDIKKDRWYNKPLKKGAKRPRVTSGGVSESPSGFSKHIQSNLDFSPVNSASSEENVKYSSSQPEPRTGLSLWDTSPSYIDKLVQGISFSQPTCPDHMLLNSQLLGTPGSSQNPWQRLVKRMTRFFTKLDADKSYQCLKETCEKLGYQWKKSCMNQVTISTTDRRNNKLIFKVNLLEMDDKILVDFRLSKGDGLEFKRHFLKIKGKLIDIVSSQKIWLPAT
Briefly: Inhibition of CHK1 (unknown origin) at 30 uM by microfluidic assay relative to control.

Experiment [6] addresses Serine/threonine-protein kinase Chk2 (Homo sapiens) (UniProt O96017). Briefly: Inhibition of CHK2 (unknown origin) at 30 uM by microfluidic assay relative to control.
The target of experiment [7] is Glycogen synthase kinase-3 (Homo sapiens) (UniProt P49840+P49841). Briefly: Inhibition of GSK3 (unknown origin) at 30 uM by microfluidic assay relative to control. In kind it is protein assay.
Sequence of Glycogen synthase kinase-3 (Homo sapiens) (P49840 whole entry, looked up): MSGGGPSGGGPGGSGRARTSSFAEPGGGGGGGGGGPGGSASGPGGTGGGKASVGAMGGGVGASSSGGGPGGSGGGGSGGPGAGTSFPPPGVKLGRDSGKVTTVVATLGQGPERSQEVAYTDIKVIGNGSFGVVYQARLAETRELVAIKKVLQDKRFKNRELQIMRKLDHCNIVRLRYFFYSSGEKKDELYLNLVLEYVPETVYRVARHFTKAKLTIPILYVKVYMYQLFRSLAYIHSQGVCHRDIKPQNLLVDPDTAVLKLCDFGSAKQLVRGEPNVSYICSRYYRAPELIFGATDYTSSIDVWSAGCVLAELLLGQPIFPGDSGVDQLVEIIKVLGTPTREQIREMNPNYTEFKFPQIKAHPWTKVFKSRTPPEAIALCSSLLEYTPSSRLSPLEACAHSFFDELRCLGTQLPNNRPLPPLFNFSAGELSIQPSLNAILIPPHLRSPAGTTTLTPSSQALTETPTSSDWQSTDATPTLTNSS
Sequence of Glycogen synthase kinase-3 (Homo sapiens) (P49841 whole entry, looked up): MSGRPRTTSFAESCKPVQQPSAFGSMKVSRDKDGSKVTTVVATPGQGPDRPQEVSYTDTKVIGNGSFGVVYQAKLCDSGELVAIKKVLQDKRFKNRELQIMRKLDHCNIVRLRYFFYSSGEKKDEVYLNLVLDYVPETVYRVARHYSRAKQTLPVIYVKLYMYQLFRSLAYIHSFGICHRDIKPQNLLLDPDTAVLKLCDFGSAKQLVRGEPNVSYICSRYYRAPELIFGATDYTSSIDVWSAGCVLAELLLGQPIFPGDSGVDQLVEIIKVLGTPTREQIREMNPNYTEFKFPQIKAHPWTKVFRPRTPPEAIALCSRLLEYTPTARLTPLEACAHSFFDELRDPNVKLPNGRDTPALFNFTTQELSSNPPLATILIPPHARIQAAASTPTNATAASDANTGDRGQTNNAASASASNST
The target of experiment [8] is Tyrosine-protein kinase Fyn (Homo sapiens) (UniProt P06241). Briefly: Inhibition of FYN (unknown origin) at 30 uM by microfluidic assay relative to control.
Sequence of Tyrosine-protein kinase Fyn (Homo sapiens) (P06241 2-537 limits assumed): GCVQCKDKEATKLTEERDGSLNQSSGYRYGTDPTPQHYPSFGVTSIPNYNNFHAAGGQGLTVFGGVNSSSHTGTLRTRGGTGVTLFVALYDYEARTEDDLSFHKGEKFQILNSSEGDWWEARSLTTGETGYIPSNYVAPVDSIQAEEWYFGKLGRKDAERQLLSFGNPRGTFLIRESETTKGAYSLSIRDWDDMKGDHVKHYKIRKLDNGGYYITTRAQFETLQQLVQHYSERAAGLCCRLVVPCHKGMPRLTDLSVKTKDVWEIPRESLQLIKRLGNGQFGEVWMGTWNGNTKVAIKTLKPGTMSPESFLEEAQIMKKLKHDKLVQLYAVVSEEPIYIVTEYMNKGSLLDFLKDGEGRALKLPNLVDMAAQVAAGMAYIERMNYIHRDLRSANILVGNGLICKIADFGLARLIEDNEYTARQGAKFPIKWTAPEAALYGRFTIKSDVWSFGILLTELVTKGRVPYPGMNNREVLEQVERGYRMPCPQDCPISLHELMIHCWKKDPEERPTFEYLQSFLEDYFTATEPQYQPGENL
Experiment [9] has as its target Insulin receptor (Homo sapiens) (UniProt P06213). Briefly: Inhibition of InsR (unknown origin) at 30 uM by microfluidic assay relative to control.
Experiment [10] deals with Tyrosine-protein kinase Lyn (Homo sapiens) (UniProt P07948). Briefly: Inhibition of LYN (unknown origin) at 30 uM by microfluidic assay relative to control.
The target of experiment [11] is Tyrosine-protein kinase Lck (Homo sapiens) (UniProt P06239). Briefly: Inhibition of LCK (unknown origin) at 30 uM by microfluidic assay relative to control.
Sequence of Tyrosine-protein kinase Lck (Homo sapiens) (P06239 2-509 limits assumed): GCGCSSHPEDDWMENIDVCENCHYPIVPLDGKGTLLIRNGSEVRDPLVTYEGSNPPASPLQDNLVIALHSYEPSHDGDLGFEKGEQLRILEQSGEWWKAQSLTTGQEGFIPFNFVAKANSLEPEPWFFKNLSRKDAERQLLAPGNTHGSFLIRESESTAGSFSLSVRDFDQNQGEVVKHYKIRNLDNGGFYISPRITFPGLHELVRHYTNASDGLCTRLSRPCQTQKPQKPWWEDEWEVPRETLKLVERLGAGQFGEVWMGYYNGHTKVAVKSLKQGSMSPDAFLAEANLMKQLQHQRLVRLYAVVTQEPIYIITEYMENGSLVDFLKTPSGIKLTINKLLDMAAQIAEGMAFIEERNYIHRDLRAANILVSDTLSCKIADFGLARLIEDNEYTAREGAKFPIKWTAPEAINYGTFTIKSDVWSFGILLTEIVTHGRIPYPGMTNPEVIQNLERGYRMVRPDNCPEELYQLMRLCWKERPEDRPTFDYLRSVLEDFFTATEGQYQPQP
The target of experiment [12] is Hepatocyte growth factor receptor (Homo sapiens) (UniProt P08581). Briefly: Inhibition of MET (unknown origin) at 30 uM by microfluidic assay relative to control.
Experiment [13] has as its target Proto-oncogene tyrosine-protein kinase Src (Homo sapiens) (UniProt P12931). Briefly: Inhibition of SRC (unknown origin) at 30 uM by microfluidic assay relative to control.
Experiment [14] concerns the target Casein kinase I isoform delta (Homo sapiens) (UniProt P48730). Briefly: Inhibition of CK1d (unknown origin) at 30 uM by microfluidic assay relative to control.
The target of experiment [15] is T3, Aurora kinase A (Homo sapiens) (UniProt O14965).
T3 sequence (whole entry): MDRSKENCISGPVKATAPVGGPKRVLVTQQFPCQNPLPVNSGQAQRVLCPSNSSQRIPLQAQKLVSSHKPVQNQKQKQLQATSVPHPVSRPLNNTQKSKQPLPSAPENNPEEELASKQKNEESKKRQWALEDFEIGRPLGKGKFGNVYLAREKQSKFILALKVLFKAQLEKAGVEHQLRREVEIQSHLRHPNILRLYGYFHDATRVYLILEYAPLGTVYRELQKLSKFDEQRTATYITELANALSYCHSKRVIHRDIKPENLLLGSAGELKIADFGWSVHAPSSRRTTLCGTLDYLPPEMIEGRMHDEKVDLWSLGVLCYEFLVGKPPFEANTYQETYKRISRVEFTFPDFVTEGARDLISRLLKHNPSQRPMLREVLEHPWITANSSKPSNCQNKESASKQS
Briefly: Inhibition of AurA (unknown origin) at 30 uM by microfluidic assay relative to control.

Experiment [16] concerns the target Vascular endothelial growth factor receptor 2 (Homo sapiens, UniProt P35968). Briefly: Inhibition of VEGFR-2 (unknown origin) by microfluidic assay relative to control.
Experiment [17] concerns the target T4, Serine/threonine-protein kinase Chk1 (Homo sapiens, UniProt O14757).
T4 sequence (O14757 whole entry): T2 sequence (whole entry)
Briefly: Inhibition of CHK1 (unknown origin) by microfluidic assay relative to control.

Sequence of RAC-alpha serine/threonine-protein kinase (Homo sapiens) (P31749 whole entry): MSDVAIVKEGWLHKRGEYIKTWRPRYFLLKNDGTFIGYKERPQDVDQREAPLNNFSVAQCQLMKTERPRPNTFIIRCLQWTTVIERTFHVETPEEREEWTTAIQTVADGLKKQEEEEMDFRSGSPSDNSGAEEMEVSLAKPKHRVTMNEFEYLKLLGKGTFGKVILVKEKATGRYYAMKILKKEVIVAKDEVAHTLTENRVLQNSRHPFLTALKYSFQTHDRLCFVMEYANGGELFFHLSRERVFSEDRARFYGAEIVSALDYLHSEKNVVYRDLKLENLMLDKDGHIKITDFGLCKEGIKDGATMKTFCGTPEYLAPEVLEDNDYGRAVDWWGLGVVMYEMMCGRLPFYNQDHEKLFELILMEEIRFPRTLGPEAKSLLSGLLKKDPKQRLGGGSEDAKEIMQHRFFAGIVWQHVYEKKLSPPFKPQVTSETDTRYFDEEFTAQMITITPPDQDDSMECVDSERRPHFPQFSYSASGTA
Sequence of Vascular endothelial growth factor receptor 2 (P35968 whole entry): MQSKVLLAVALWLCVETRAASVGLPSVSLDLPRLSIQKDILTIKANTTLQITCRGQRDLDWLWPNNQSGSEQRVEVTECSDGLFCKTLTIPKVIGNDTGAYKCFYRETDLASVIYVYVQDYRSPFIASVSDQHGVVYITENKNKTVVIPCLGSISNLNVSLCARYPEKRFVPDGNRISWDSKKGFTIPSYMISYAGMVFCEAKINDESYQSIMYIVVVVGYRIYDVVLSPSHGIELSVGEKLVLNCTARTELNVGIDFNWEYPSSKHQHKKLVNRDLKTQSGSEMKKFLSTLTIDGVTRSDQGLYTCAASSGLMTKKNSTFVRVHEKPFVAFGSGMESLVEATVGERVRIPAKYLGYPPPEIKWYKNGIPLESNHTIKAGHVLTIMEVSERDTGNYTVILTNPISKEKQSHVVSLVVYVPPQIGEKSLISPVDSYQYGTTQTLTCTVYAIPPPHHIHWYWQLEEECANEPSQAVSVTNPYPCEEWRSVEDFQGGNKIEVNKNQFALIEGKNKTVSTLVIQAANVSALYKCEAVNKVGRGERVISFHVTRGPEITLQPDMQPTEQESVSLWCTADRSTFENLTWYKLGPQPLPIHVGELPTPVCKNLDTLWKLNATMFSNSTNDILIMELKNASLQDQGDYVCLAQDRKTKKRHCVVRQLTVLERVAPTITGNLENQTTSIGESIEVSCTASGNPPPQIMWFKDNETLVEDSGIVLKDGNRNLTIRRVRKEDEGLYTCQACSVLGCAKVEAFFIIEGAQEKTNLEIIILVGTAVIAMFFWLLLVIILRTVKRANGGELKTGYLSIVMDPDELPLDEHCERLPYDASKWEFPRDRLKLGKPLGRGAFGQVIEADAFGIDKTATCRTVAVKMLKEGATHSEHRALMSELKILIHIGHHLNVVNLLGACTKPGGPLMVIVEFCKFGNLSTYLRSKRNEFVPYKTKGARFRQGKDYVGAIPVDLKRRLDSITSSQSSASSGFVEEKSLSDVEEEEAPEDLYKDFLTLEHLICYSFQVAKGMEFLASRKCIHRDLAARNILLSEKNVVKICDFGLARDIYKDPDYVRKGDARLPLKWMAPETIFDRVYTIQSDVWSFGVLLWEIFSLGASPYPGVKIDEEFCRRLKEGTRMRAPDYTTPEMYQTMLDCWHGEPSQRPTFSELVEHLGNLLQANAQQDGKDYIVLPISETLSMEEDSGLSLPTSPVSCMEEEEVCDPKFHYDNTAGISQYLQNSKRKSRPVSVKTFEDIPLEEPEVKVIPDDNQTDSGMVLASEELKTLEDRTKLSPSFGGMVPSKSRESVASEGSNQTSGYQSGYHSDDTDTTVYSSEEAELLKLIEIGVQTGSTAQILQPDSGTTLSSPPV
Sequence of Casein kinase I isoform delta (Homo sapiens) (P48730 whole entry, looked up, canonical isoform): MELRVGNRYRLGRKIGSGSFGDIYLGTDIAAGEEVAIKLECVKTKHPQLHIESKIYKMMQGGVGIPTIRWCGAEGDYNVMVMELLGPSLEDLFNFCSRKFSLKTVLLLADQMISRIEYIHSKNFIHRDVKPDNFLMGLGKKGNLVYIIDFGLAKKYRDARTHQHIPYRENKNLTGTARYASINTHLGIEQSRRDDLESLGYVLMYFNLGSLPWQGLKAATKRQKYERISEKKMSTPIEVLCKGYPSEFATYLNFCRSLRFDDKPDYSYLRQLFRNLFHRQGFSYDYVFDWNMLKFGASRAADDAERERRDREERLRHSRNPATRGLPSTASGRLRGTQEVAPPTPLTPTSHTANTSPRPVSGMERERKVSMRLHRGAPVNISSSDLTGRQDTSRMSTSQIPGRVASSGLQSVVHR
Sequence of MAP kinase-activated protein kinase 2 (Homo sapiens) (P49137 whole entry, looked up): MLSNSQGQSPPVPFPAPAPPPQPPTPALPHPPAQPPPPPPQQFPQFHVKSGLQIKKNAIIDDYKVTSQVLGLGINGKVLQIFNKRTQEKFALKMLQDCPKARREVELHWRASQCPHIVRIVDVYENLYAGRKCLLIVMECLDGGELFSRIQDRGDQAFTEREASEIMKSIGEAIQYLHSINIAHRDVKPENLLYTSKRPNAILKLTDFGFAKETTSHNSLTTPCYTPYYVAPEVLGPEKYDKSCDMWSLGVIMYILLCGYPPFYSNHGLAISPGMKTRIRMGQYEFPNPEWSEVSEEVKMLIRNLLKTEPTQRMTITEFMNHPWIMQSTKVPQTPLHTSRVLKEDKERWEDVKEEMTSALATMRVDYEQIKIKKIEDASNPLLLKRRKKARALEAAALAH

As to `Cc1[nH]c(-c2ccccc2)c(-c2ccccc2)c1C(=O)c1coc2c1cc(O)c1ccccc12`, the inhibition – broadly, the change of the read-out against control, counted positive when it falls – came out at 13% in experiment [1]; 34% in experiment [2]; 76% in experiment [3]; 54% in [4]; 96% in experiment [5]; 55% in [6]. Also, the inhibition in experiment [7] turned out to be 2%; in experiment [8], 21%; in [9], 32%; in [10], 34%; in experiment [11] it was 32%; in experiment [12] it was 34%. Besides, the inhibition was 21% in [13], 22% in [14] and 23% in [15]. The half-inhibitory concentration (IC50) – broadly, the concentration needed to halve the response being measured – is 4560 nM in experiment [16] and 310 nM in experiment [17].
Regarding `Cc1[nH]c(-c2ccccc2)c(-c2ccccc2)c1-c1nnc(O)c2nn(-c3ccccc3)cc12`, the inhibition in experiment [1] was 90%; in [2], 63%; in experiment [3], 19%; in experiment [4], 32%; in experiment [5] it was 84%; in experiment [6], 24%. The inhibition in [7] worked out at 43%; in [8], 12%; in experiment [9] it was 12%; in experiment [10], 5%; in [11] it was 32%; in experiment [12], 4%. Further, the inhibition in experiment [13] is 23%; in [14] it was 53%; in experiment [15], 32%. Also, the half-maximal inhibitory concentration (IC50) is 3450 nM in experiment [16] and 690 nM in experiment [17].
As to `Cc1[nH]c(-c2ccccc2)c(-c2ccccc2)c1C(=O)c1cn(-c2ccccc2)nc1C(=O)Nc1ccccc1`, the inhibition was found to be 45% in experiment [1]; 44% in [2]; 26% in experiment [3]; 65% in experiment [4]; 80% in experiment [5]; 4% in experiment [6]. The inhibition in experiment [7] worked out at 23%; in [8], 21%; in [9], 33%; in experiment [10], 24%; in [11], 25%; in experiment [12] it was 3%. Also, the results for the inhibition in experiment [13], in experiment [14] and in experiment [15] were 33%, 43% and 2%, respectively. Besides, the concentration for half-maximal inhibition (IC50) was 3450 nM in [16] and 800 nM in [17].

Source of the values: ChEMBL document CHEMBL3739348, “Novel pyrrole derivatives as selective CHK1 inhibitors: design, regioselective synthesis and molecular modeling” (Medchemcomm, 2015).
